Measured values published in PubChem BioAssay (NCI).
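Values below derive from 48-hour exposures of cells grown in 96-well plates, with endpoints linearly interpolated between the two concentrations bracketing the appropriate inhibition level. TGI denotes the concentration required for complete inhibition of growth.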

How the values were obtained:
Test in all cases: growth of human tumour cells (NCI), 48 h
SK-MEL-5 melanoma = system: SK-MEL-5 melanoma
KM12 colon = system: KM12 colon
PC-3 prostate = system: PC-3 prostate
SF-268 CNS = system: SF-268 CNS
UACC-257 melanoma = system: UACC-257 melanoma
SK-OV-3 ovarian = system: SK-OV-3 ovarian
DU-145 prostate = system: DU-145 prostate
A549 NSCLC = system: A549 NSCLC
EKVX NSCLC = system: EKVX NSCLC
HL-60(TB) leukemia = system: HL-60(TB) leukemia
OVCAR-4 ovarian = system: OVCAR-4 ovarian
MDA-MB-231 breast = system: MDA-MB-231 breast
SK-MEL-2 melanoma = system: SK-MEL-2 melanoma
OVCAR-5 ovarian = system: OVCAR-5 ovarian
ACHN renal = system: ACHN renal
NCI-H226 lung = system: NCI-H226 lung
M14 melanoma = system: M14 melanoma
UACC-62 melanoma = system: UACC-62 melanoma
NCI/ADR-RES ovarian = system: NCI/ADR-RES ovarian
HS 578T breast = system: HS 578T breast

C1CCC2C(C1)CCCC2NC1=NCCO1 (stereo not drawn)
TGI (SK-MEL-5 melanoma): > 100 µM
TGI (KM12 colon): > 100 µM
TGI (PC-3 prostate): > 100 µM
TGI (SF-268 CNS): > 100 µM
TGI (UACC-257 melanoma): > 100 µM
TGI (SK-OV-3 ovarian): > 100 µM
TGI (DU-145 prostate): > 100 µM
TGI (A549 NSCLC): > 100 µM
TGI (EKVX NSCLC): > 100 µM
TGI (HL-60(TB) leukemia): > 100 µM
TGI (OVCAR-4 ovarian): > 100 µM
TGI (MDA-MB-231 breast): > 100 µM
TGI (SK-MEL-2 melanoma): > 100 µM
TGI (OVCAR-5 ovarian): > 100 µM
TGI (ACHN renal): > 100 µM
TGI (NCI-H226 lung): > 100 µM
TGI (M14 melanoma): > 100 µM
TGI (UACC-62 melanoma): > 100 µM
TGI (NCI/ADR-RES ovarian): > 100 µM

Cc1ccc2c(c1)[nH]c1cc(C(F)(F)F)ccc1[p+]2=O (stereo not drawn)
TGI (SK-MEL-5 melanoma): 34 µM
TGI (KM12 colon): > 100 µM
TGI (PC-3 prostate): 73.5 µM
TGI (SF-268 CNS): > 100 µM
TGI (UACC-257 melanoma): 66 µM
TGI (SK-OV-3 ovarian): > 100 µM
TGI (DU-145 prostate): > 100 µM
TGI (A549 NSCLC): > 100 µM
TGI (EKVX NSCLC): 22.2 µM
TGI (HL-60(TB) leukemia): 56.2 µM
TGI (OVCAR-4 ovarian): 79.2 µM
TGI (MDA-MB-231 breast): 49.1 µM
TGI (SK-MEL-2 melanoma): > 100 µM
TGI (OVCAR-5 ovarian): > 100 µM
TGI (ACHN renal): > 100 µM
TGI (NCI-H226 lung): 70.5 µM
TGI (M14 melanoma): > 100 µM
TGI (UACC-62 melanoma): 54.9 µM
TGI (NCI/ADR-RES ovarian): > 100 µM

CN(C)Cc1cc(C(=O)/C=C/c2ccccc2Cl)cc(CN(C)C)c1O
TGI (SK-MEL-5 melanoma): 26.1 µM
TGI (KM12 colon): 20.3 µM
TGI (PC-3 prostate): 29.2 µM
TGI (SF-268 CNS): 61.3 µM
TGI (UACC-257 melanoma): 30.1 µM
TGI (DU-145 prostate): 24.8 µM
TGI (A549 NSCLC): 38.7 µM
TGI (EKVX NSCLC): 30.6 µM
TGI (HL-60(TB) leukemia): 27.2 µM
TGI (MDA-MB-231 breast): 24.6 µM
TGI (OVCAR-5 ovarian): 40.2 µM
TGI (HS 578T breast): 46.3 µM
TGI (ACHN renal): 16.3 µM
TGI (NCI-H226 lung): 48.2 µM
TGI (M14 melanoma): 23.3 µM
TGI (NCI/ADR-RES ovarian): 63.6 µM

COC(=O)C1=CC(=O)OC1(OO)c1ccccc1 (stereo not drawn)
TGI (SK-MEL-5 melanoma): > 100 µM
TGI (KM12 colon): > 100 µM
TGI (PC-3 prostate): > 100 µM
TGI (UACC-257 melanoma): > 100 µM
TGI (SK-OV-3 ovarian): > 100 µM
TGI (DU-145 prostate): > 100 µM
TGI (A549 NSCLC): > 100 µM
TGI (EKVX NSCLC): > 100 µM
TGI (HL-60(TB) leukemia): 20.4 µM
TGI (OVCAR-4 ovarian): > 100 µM
TGI (MDA-MB-231 breast): > 100 µM
TGI (SK-MEL-2 melanoma): > 100 µM
TGI (OVCAR-5 ovarian): > 100 µM
TGI (ACHN renal): > 100 µM
TGI (NCI-H226 lung): > 100 µM
TGI (M14 melanoma): > 100 µM
TGI (UACC-62 melanoma): > 100 µM
TGI (NCI/ADR-RES ovarian): > 100 µM

Cc1ccc2nc(Cl)c(/C=N/N3C(=O)/C(=C/c4ccccc4S)N=C3c3ccccc3)cc2c1
TGI (SK-MEL-5 melanoma): > 100 µM
TGI (KM12 colon): > 100 µM
TGI (PC-3 prostate): > 100 µM
TGI (SF-268 CNS): > 100 µM
TGI (UACC-257 melanoma): > 100 µM
TGI (SK-OV-3 ovarian): > 100 µM
TGI (DU-145 prostate): > 100 µM
TGI (A549 NSCLC): > 100 µM
TGI (EKVX NSCLC): > 100 µM
TGI (HL-60(TB) leukemia): 61.6 µM
TGI (OVCAR-4 ovarian): > 100 µM
TGI (MDA-MB-231 breast): > 100 µM
TGI (SK-MEL-2 melanoma): 52.2 µM
TGI (OVCAR-5 ovarian): > 100 µM
TGI (HS 578T breast): 58 µM
TGI (ACHN renal): > 100 µM
TGI (M14 melanoma): 79.4 µM
TGI (UACC-62 melanoma): > 100 µM
TGI (NCI/ADR-RES ovarian): 76.5 µM

CC1=COC(C)(C=C(C#N)C#N)CC1 (stereo not drawn)
TGI (SK-MEL-5 melanoma): > 100 µM
TGI (KM12 colon): > 100 µM
TGI (SF-268 CNS): > 100 µM
TGI (UACC-257 melanoma): > 100 µM
TGI (SK-OV-3 ovarian): > 100 µM
TGI (DU-145 prostate): > 100 µM
TGI (A549 NSCLC): > 100 µM
TGI (EKVX NSCLC): > 100 µM
TGI (HL-60(TB) leukemia): 50.1 µM
TGI (OVCAR-4 ovarian): > 100 µM
TGI (MDA-MB-231 breast): > 100 µM
TGI (OVCAR-5 ovarian): > 100 µM
TGI (HS 578T breast): 51.3 µM
TGI (ACHN renal): > 100 µM
TGI (NCI-H226 lung): > 100 µM
TGI (M14 melanoma): > 100 µM
TGI (UACC-62 melanoma): > 100 µM
TGI (NCI/ADR-RES ovarian): > 100 µM

N#Cc1c(-c2ccccc2)nc(-c2ccccc2)sc1=S
TGI (SK-MEL-5 melanoma): > 100 µM
TGI (KM12 colon): > 100 µM
TGI (SF-268 CNS): > 100 µM
TGI (UACC-257 melanoma): > 100 µM
TGI (SK-OV-3 ovarian): > 100 µM
TGI (DU-145 prostate): > 100 µM
TGI (A549 NSCLC): > 100 µM
TGI (EKVX NSCLC): > 100 µM
TGI (HL-60(TB) leukemia): > 100 µM
TGI (OVCAR-4 ovarian): > 100 µM
TGI (MDA-MB-231 breast): > 100 µM
TGI (SK-MEL-2 melanoma): > 100 µM
TGI (OVCAR-5 ovarian): > 100 µM
TGI (HS 578T breast): > 100 µM
TGI (ACHN renal): > 100 µM
TGI (NCI-H226 lung): > 100 µM
TGI (M14 melanoma): > 100 µM
TGI (UACC-62 melanoma): > 100 µM
TGI (NCI/ADR-RES ovarian): > 100 µM
